Data on 13 compounds can be found in patent USRE50528E1, “Compounds and compositions for modulating EGFR mutant kinase activities” (Yuhan Corporation, priority 2014, dated 2025).

SMILES strings stand for the structures. Bounds are passed on as bounds.

In one assay the target is T1, EGFR mutant T790M (Homo sapiens, UniProt P00533, T790M).
T1 construct: truncated human JAK3, EGFR mutants such as del E746-A750; purchased Carna Biosciences
The experiment in a line: Kinase inhibition assay, EGFR mutant T790M.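 Note: truncated human EGFR mutant enzyme preincubated two hours with compound, then ATP plus ULight-PolyGT peptide for one hour, Europium-labeled antibody LANCE detection, IC50.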 Particulars: biochemical potency.

Assay [1] deals with T2, EGFR mutant Del19 (E746-A750) (Homo sapiens, UniProt P00533, DEL746-750).
T2 construct: truncated human JAK3, EGFR mutants such as del E746-A750; purchased Carna Biosciences
T2 sequence (P00533 with tags, fused parts or gaps DEL746-750 limits assumed): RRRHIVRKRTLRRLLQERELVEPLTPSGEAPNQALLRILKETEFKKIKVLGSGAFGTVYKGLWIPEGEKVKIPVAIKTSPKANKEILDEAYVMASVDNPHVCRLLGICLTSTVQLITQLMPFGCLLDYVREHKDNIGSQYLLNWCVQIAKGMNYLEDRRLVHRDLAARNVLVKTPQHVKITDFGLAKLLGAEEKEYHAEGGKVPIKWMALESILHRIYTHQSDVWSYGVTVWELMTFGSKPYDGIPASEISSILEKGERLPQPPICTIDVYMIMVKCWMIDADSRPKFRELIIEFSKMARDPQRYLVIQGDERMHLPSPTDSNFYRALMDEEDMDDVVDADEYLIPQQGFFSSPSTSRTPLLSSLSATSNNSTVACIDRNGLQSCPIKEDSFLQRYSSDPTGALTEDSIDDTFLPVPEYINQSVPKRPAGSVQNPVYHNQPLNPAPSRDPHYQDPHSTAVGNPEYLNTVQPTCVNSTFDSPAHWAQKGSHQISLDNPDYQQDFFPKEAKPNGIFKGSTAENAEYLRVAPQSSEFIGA
The experiment in a line: Kinase inhibition assay, EGFR del E746-A750.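 Note: truncated human EGFR mutant kinase, two-hour preincubation with compound, then one-hour reaction with ATP and ULight-PolyGT peptide, LANCE Europium-antibody phosphorylation readout, IC50.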 Particulars: read-out: EGFR mutants Del19 (E746-A750). The class given is biochemical.

In a further assay the target is T3, EGFR mutant L858R (Homo sapiens, UniProt P00533, L858R).
T3 construct: truncated human JAK3, EGFR mutants such as del E746-A750; purchased Carna Biosciences
T3 sequence (P00533 669-1210 L858R limits assumed): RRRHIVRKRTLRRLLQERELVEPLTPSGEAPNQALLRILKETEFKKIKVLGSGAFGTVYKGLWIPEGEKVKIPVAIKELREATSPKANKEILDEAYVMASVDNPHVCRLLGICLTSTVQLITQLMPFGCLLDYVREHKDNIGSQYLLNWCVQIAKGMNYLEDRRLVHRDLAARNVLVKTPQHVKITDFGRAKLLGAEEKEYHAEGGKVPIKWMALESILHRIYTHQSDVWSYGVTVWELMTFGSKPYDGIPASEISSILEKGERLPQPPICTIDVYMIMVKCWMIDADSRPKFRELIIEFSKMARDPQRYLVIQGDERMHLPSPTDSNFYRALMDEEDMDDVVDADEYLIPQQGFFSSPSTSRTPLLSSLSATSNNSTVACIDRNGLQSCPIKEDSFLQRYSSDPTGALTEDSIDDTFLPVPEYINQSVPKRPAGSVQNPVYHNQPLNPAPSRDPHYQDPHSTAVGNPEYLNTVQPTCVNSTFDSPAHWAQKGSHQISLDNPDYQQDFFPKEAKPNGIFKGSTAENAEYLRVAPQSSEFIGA
Put plainly: Kinase inhibition assay, EGFR L858R.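 Note: truncated human EGFR L858R kinase with compound preincubation, ULight-PolyGT peptide phosphorylation read by Europium-antibody Lance detection, IC50.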 The class given is biochemical. Particulars: read-out: EGFR mutants L858R.

A further assay concerns the target T4, EGFR mutant L858R/T790M (Homo sapiens, UniProt P00533, L858R/T790M).
T4 construct: truncated human JAK3, EGFR mutants such as del E746-A750; purchased Carna Biosciences
Put plainly: Kinase inhibition assay, EGFR L858R/T790M.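 Note: truncated human enzyme preincubated two hours with compound, then one hour with one millimolar ATP and ULight-PolyGT peptide, Europium-labeled antibody detection, IC50.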 The assay is classed as biochemical. Particulars: read-out: EGFR mutants L858R/T790M.

The target of another assay is T5, EGFR mutant Del19/T790M (Homo sapiens, UniProt P00533, DEL746-750/T790M).
T5 construct: truncated human JAK3, EGFR mutants such as del E746-A750; purchased Carna Biosciences
T5 sequence (P00533 with tags, fused parts or gaps DEL746-750/T790M limits assumed): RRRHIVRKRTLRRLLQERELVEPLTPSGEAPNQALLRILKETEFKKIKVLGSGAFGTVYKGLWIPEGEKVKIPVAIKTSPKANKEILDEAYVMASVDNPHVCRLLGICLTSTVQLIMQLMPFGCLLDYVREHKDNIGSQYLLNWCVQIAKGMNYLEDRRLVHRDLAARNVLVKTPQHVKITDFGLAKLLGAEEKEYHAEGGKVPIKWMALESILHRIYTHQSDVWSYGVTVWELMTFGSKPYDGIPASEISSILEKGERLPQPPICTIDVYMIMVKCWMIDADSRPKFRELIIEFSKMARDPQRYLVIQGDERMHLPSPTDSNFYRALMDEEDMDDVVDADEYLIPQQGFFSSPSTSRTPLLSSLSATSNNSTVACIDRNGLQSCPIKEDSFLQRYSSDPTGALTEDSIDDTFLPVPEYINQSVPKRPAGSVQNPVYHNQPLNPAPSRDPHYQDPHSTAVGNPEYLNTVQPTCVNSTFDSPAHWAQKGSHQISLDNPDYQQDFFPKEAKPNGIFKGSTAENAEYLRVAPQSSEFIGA
Put plainly: Kinase inhibition assay, EGFR del E746-A750/T790M. The class given is biochemical. Particulars: read-out: EGFR mutants Del19/T790M.

For the next assay, the target named is T6, SYK (Homo sapiens, UniProt P43405).
T6 construct: Purified human, full-length SYK, KDR; purchased Carna Biosciences
Put plainly: Kinase inhibition assay, SYK.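 Note: purified full-length human SYK pre-incubated 30 min with compound, then ULight-TK peptide phosphorylation for 1 h, detected with Europium-labeled antibody in Lance buffer.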 The assay is classed as biochemical. The following applies: biochemical potency.

T4 sequence (P00533 669-1210 T790M/L858R limits assumed): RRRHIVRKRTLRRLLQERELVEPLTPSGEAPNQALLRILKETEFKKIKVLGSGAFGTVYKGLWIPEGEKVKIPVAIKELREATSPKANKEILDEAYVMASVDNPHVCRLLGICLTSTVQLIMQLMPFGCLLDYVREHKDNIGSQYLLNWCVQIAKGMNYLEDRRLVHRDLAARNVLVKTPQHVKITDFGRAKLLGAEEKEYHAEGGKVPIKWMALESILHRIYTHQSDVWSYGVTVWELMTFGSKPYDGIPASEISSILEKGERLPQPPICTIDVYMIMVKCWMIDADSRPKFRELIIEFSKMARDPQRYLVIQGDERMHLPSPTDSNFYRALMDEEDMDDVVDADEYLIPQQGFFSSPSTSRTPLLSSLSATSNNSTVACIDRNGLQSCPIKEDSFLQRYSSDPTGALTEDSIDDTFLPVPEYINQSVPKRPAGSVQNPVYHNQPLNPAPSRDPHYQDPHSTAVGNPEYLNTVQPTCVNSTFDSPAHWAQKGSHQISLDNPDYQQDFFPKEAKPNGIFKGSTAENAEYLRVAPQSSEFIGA
T1 sequence (P00533 669-1210 T790M limits assumed): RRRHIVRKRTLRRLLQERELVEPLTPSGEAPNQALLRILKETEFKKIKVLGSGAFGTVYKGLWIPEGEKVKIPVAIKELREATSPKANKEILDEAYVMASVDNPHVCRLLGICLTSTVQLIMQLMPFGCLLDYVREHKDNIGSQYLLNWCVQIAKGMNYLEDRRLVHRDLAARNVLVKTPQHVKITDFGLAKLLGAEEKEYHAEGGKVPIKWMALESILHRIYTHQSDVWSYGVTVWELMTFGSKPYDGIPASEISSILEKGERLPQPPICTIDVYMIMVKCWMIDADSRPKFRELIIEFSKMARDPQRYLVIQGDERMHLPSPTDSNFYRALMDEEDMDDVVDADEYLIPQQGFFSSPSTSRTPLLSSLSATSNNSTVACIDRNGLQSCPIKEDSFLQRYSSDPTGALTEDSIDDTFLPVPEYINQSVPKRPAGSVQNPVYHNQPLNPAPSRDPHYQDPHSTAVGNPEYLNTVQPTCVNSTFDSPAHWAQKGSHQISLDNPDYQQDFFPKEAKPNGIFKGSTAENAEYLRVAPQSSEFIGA

As to `C=CC(=O)Nc1cc(Nc2nccc(-n3cc(CN4CCC4)c(-c4ccccc4)n3)n2)c(OC)cc1N(C)C1COC1` [Compound 97, N-(5-(4-(4-(azetidin-1-ylmethyl)-3-phenyl-1H-pyrazol-1-yl)pyrimidin-2-ylamino)-4-methoxy-2-(methyl(oxetan-3-yl)amino)phenyl)acrylamide], the IC50 is 20 to 200 nM on EGFR mutant T790M; 20 to 200 nM in assay [1]; under 20 nM on EGFR mutant L858R; under 20 nM at EGFR mutant L858R/T790M; under 20 nM at EGFR mutant Del19/T790M; over 1000 nM on SYK.

For `C=CC(=O)Nc1cc(Nc2nccc(-n3cc(CN4CCC4)c(C4CC4)n3)n2)c(OC)cc1N(C)CCOC` [Compound 107, N-(5-(4-(4-(azetidin-1-ylmethyl)-3-cyclopropyl-1H-pyrazol-1-yl)pyrimidin-2-ylamino)-4-methoxy-2-((2-methoxyethyl)(methyl)amino)phenyl)acrylamide], the IC50 against EGFR mutant T790M was under 20 nM; in assay [1], under 20 nM; at EGFR mutant L858R, under 20 nM; at EGFR mutant L858R/T790M, under 20 nM; on EGFR mutant Del19/T790M it was under 20 nM; against SYK, 20 to 200 nM.

Turning to `C=CC(=O)Nc1cc(Nc2nccc(-n3cc(CN(C)C)c(C4CC4)n3)n2)c(OC)cc1N(C)C1COC1` [Compound 108, N-(5-(4-(3-cyclopropyl-4-((dimethylamino)methyl)-1H-pyrazol-1-yl)pyrimidin-2-ylamino)-4-methoxy-2-(methyl(oxetan-3-yl)amino)phenyl)acrylamide], the IC50 against EGFR mutant T790M was under 20 nM; in assay [1] it was under 20 nM; at EGFR mutant L858R, under 20 nM; at EGFR mutant L858R/T790M it was under 20 nM; on EGFR mutant Del19/T790M, under 20 nM; against SYK, 20 to 200 nM.

For `C=CC(=O)Nc1cc(Nc2nccc(-n3cc(CN4CCC4)c(C4CC4)n3)n2)c(OC)cc1N(C)C1COC1` [Compound 109, N-(5-(4-(4-(azetidin-1-ylmethyl)-3-cyclopropyl-1H-pyrazol-1-yl)pyrimidin-2-ylamino)-4-methoxy-2-(methyl(oxetan-3-yl)amino)phenyl)acrylamide], the IC50 against EGFR mutant T790M is under 20 nM; in assay [1] it was under 20 nM; on EGFR mutant L858R, under 20 nM; at EGFR mutant L858R/T790M, under 20 nM; at EGFR mutant Del19/T790M it was under 20 nM; at SYK, over 1000 nM.

`C=CC(=O)Nc1cc(Nc2nccc(-n3cc(CN(C)C)c(C(C)C)n3)n2)c(OC)cc1N(C)C1COC1` [Compound 114, N-(5-(4-(4-((dimethylamino)methyl)-3-isopropyl-1H-pyrazol-1-yl)pyrimidin-2-ylamino)-4-methoxy-2-(methyl(oxetan-3-yl)amino)phenyl)acrylamide]: the IC50 was under 20 nM on EGFR mutant T790M; under 20 nM in assay [1]; under 20 nM on EGFR mutant L858R; under 20 nM at EGFR mutant L858R/T790M; under 20 nM at EGFR mutant Del19/T790M; 201 to 1000 nM at SYK.

`C=CC(=O)Nc1cc(Nc2nccc(-n3cc(CN4CCC4)c(C(C)C)n3)n2)c(OC)cc1N(C)C1COC1` [Compound 115]: the IC50 against EGFR mutant T790M was under 20 nM; in assay [1] it was under 20 nM; at EGFR mutant L858R it was under 20 nM; at EGFR mutant L858R/T790M, under 20 nM; on EGFR mutant Del19/T790M, under 20 nM; on SYK it was over 1000 nM.

As to `C=CC(=O)Nc1cc(Nc2nccc(-n3cc(CN4CCC4)c(C(C)C)n3)n2)c(OC)cc1N1CCOCC1` [Compound 119, N-(5-(4-(4-(azetidin-1-ylmethyl)-3-isopropyl-1H-pyrazol-1-yl)pyrimidin-2-ylamino)-4-methoxy-2-morpholinophenyl)acrylamide], the IC50 against EGFR mutant T790M is under 20 nM; in assay [1] it was under 20 nM; at EGFR mutant L858R it was under 20 nM; on EGFR mutant L858R/T790M, under 20 nM; at EGFR mutant Del19/T790M, under 20 nM; against SYK it was 201 to 1000 nM.

For `C=CC(=O)Nc1cc(Nc2ncc(C)c(-n3cc(CN(C)C)c(-c4ccccc4)n3)n2)c(OC)cc1N1CCOCC1` [Compound 120, N-(5-(4-(4-((dimethylamino)methyl)-3-phenyl-1H-pyrazol-1-yl)-5-methylpyrimidin-2-ylamino)-4-methoxy-2-morpholinophenyl)acrylamide], the IC50 against EGFR mutant T790M is under 20 nM; in assay [1], under 20 nM; at EGFR mutant L858R, under 20 nM; on EGFR mutant L858R/T790M, under 20 nM; on EGFR mutant Del19/T790M, under 20 nM; on SYK, 20 to 200 nM.

For `C=CC(=O)Nc1cc(Nc2nccc(-n3cc(CN(C)C)c(-c4ccoc4)n3)n2)c(OC)cc1N1CCOCC1` [Compound 127, N-(5-(4-(4-((dimethylamino)methyl)-3-(furan-3-yl)-1H-pyrazol-1-yl)pyrimidin-2-ylamino)-4-methoxy-2-morpholinophenyl)acrylamide], the IC50 against EGFR mutant T790M was under 20 nM; in assay [1], under 20 nM; at EGFR mutant L858R, under 20 nM; on EGFR mutant L858R/T790M, under 20 nM; on EGFR mutant Del19/T790M, under 20 nM; at SYK, 201 to 1000 nM.

As to `C=CC(=O)Nc1cc(Nc2nccc(-n3cc(CN(C)C)c(C4CC4)n3)n2)c(OC)cc1N1CCN(C(C)=O)CC1` [Compound 129, N-(2-(4-acetylpiperazin-1-yl)-5-(4-(3-cyclopropyl-4-((dimethylamino)methyl)-1H-pyrazol-1-yl)pyrimidin-2-ylamino)-4-methoxyphenyl)acrylamide], the IC50 is under 20 nM against EGFR mutant T790M; under 20 nM in assay [1]; under 20 nM at EGFR mutant L858R; under 20 nM at EGFR mutant L858R/T790M; under 20 nM at EGFR mutant Del19/T790M; 201 to 1000 nM against SYK.

`C=CC(=O)Nc1cc(Nc2ncc(F)c(-n3cc(CN4CCC4)c(-c4ccoc4)c3)n2)c(OC)cc1N1CCOCC1` [Compound 130, N-(5-(4-(3-(azetidin-1-ylmethyl)-4-(furan-3-yl)-1H-pyrrol-1-yl)-5-fluoropyrimidin-2-ylamino)-4-methoxy-2-morpholinophenyl)acrylamide]: the IC50 against EGFR mutant T790M was under 20 nM; in assay [1], under 20 nM; at EGFR mutant L858R it was under 20 nM; at EGFR mutant L858R/T790M, under 20 nM; on EGFR mutant Del19/T790M it was under 20 nM; against SYK it was 201 to 1000 nM.

In the case of `C=CC(=O)Nc1cc(Nc2ncc(F)c(-n3cc(CN(C)C)c(-c4ccoc4)c3)n2)c(OC)cc1N1CCOCC1` [Compound 131, N-(5-(4-(3-((dimethylamino)methyl)-4-(furan-3-yl)-1H-pyrrol-1-yl)-5-fluoropyrimidin-2-ylamino)-4-methoxy-2-morpholinophenyl)acrylamide], the IC50 was under 20 nM against EGFR mutant T790M; under 20 nM in assay [1]; under 20 nM on EGFR mutant L858R; under 20 nM on EGFR mutant L858R/T790M; under 20 nM at EGFR mutant Del19/T790M; 201 to 1000 nM at SYK.

On to `C=CC(=O)Nc1cc(Nc2nccc(-n3cc(CN4CCC4)c(-c4ccccc4)n3)n2)c(OC)cc1N1CCN(C(C)=O)CC1` [Compound 134, N-(2-(4-acetylpiperazin-1-yl)-5-(4-(4-(azetidin-1-ylmethyl)-3-phenyl-1H-pyrazol-1-yl)pyrimidin-2-ylamino)-4-methoxyphenyl)acrylamide], for which the IC50 against EGFR mutant T790M was under 20 nM; in assay [1] it was under 20 nM; at EGFR mutant L858R it was under 20 nM; on EGFR mutant L858R/T790M, under 20 nM; at EGFR mutant Del19/T790M, under 20 nM; on SYK, 201 to 1000 nM.
